Assay results published in patent publication US4404378A, “2-Substituted or unsubstituted aminocarbonyloxyalkyl-1,4-dihydropyridines” (Banyu Pharmaceutical Co., Ltd., priority 1981, dated 1983).
≈ marks a conversion by molar mass, not a printed value. Where two headings read alike, the source gives them in different places.

Tests used:
[1] = Acute toxicity, i.v., up-and-down method; details: mouse, in vivo, iv
[2] = test system: isolated hearts of rabbits; experiment: Coronary vasodilation in isolated rabbit hearts (Langendorff method); details: Oryctolagus cuniculus, isolated rabbit heart, dosage required to increase coronary outflow by 50%, read-out: Coronary vasodilation ICD50
Description: (a) Coronary vasodilation According to Langendorff method (O. Langendorff; Pflugers arch. ges. phisiol., 61, 291-332 (1895)), the coronary vasodilation effects were tested using isolated hearts of rabbits.

[3] = test system: Beagle dogs; experiment: Coronary effects on dogs; type: in vivo, dog
Description: (c) Coronary effects on dogs Beagle dogs (13 to 16 kg. .male.) were subjected to thoracotomy under anesthesia with sodium pentobarbital, and a probe was attached to the heart left coronary anterior descending artery of each animal, whereupon the coronary blood flow (CF) was measured by an electromagnetic flowmeter. On the other hand, a probe was attached to the exposed right femoral artery, and the femoral artery blood flow (FAF) was measured by an electromagnetic flowmeter. A canule was inserted to the left femoral artery, and the systemic blood pressure (BP) was bloody measured by a transducer. The heart rate (HR) was measured by an electrocardiogram. The sample solution was intravenously injected to the right femoral vein. The coronary blood flow (CF), the femoral artery blood flow (FAF) and the heart rate (HR) were represented by a % increase upon the injection of each sample as compared with the respective control value upon the injection of a saline. […]

Row | SMILES | LD50 [1] [mg/kg] | EC50 ([2]; Table 1(a)) [µg/mL] | EC50 ([2]; Table 1(b)) [µg/mL] | also measured
1 | CCOC(=O)C1=C(C)NC(COC(N)=O)=C(C(=O)OCC)C1c1cccc([N+](=O)[O-])c1 (stereo not drawn) [(1)] | 207 | 0.24 (≈ 0.554 µM) |  | 
2 | COC(=O)C1=C(C)NC(COC(N)=O)=C(C(=O)OC)C1c1cccc([N+](=O)[O-])c1 (stereo not drawn) [(3), 2-Aminocarbonyloxymethyl-6-methyl-4-(3-nitrophenyl)-3,5-dimethoxycarbonyl-1,4-dihydropyridine] | 167 | 0.36 (≈ 0.888 µM) |  | 
3 | CCOC(=O)C1=C(C)NC(COC(N)=O)=C(C(=O)OCC)C1c1ccccc1[N+](=O)[O-] (stereo not drawn) [(5), 2-Aminocarbonyloxymethyl-6-methyl-4-(2-nitrophenyl)-3,5-diethoxycarbonyl-1,4-dihydropyridine] | 104 | 0.48 (≈ 1.11 µM) |  | 
4 | CCOC(=O)C1=C(C)NC(COC(=O)NC)=C(C(=O)OCC)C1c1ccccc1[N+](=O)[O-] (stereo not drawn) [(6), 2-N--Methylaminocarbonyloxymethyl-6-methyl-4-(2-nitrophenyl)-3,5-diethoxycarbonyl-1,4-dihydropyridine] | 30 | 0.45 (≈ 1.01 µM) |  | 
5 | CCOC(=O)C1=C(COC(N)=O)NC(C)=C(C(=O)OC(C)C)C1c1cccc([N+](=O)[O-])c1 (stereo not drawn) [(7), 2-Aminocarbonyloxymethyl-6-methyl-4-(3-nitrophenyl)-3-ethoxycarbonyl-5-isopropoxycarbonyl-1,4-dihydropyridine] | 76 | 0.24 (≈ 0.536 µM) |  | 
6 | CCOC(=O)C1=C(COC(=O)NC)NC(C)=C(C(=O)OC(C)C)C1c1cccc([N+](=O)[O-])c1 (stereo not drawn) [(8), 2-N--Methylaminocarbonyloxymethyl-6-methyl-4-(3-nitrophenyl)-3-ethoxycarbonyl-5-isopropoxycarbonyl-1,4-dihydropyridine] | 37 | 0.23 (≈ 0.498 µM) |  | 
7 | CCCOCCOC(=O)C1=C(C)NC(COC(N)=O)=C(C(=O)OCC)C1c1cccc([N+](=O)[O-])c1 (stereo not drawn) [(9), 2-Aminocarbonyloxymethyl-6-methyl-4-(3-nitrophenyl)-3-ethoxycarbonyl-5-(β-propoxyethoxy)carbonyl-1,4-dihydropyridine] | 136 |  | 0.34 (≈ 0.692 µM) | 
8 | CCCOCCOC(=O)C1=C(C)NC(COC(N)=O)=C(C(=O)OCC)C1c1ccccc1[N+](=O)[O-] (stereo not drawn) [(10), 2-Aminocarbonyloxymethyl-6-methyl-4-(2-nitrophenyl)-3-ethoxycarbonyl-5-(β-propoxyethoxy)carbonyl-1,4-dihydropyridine] | 84 |  | 0.3 (≈ 0.61 µM) | 
9 | CCCOCCOC(=O)C1=C(COC(N)=O)NC(C)=C(C(=O)OCC)C1c1cccc([N+](=O)[O-])c1 (stereo not drawn) [(11), 2-Aminocarbonyloxymethyl-6-methyl-4-(3-nitrophenyl)-5-ethoxycarbonyl-3-(β-propoxyethoxy)carbonyl-1,4-dihydropyridine] | 123 |  | 0.25 (≈ 0.509 µM) | 
10 | CCCOCCOC(=O)C1=C(C)NC(COC(N)=O)=C(C(=O)OCCOCCC)C1c1cccc([N+](=O)[O-])c1 (stereo not drawn) [(12), 2-Aminocarbonyloxymethyl-6-methyl-4-(3-nitrophenyl)-3,5-bis[(β-propoxyethoxy)carbonyl]-1,4-dihydropyridine] | 123 |  | 0.15 (≈ 0.273 µM) | 
11 | CCCOCCOC(=O)C1=C(C)NC(COC(=O)NC)=C(C(=O)OCCOCCC)C1c1cccc([N+](=O)[O-])c1 (stereo not drawn) [(13), 2-N--Methylaminocarbonyloxymethyl-6-methyl-4-(3-nitrophenyl)-3,5-bis[(β-propoxyethoxy)carbonyl]-1,4-dihydropyridine] | 104 |  | 0.04 (≈ 0.071 µM) | 
12 | CCOC(=O)C1=C(C)NC(COC(=O)NC2CCCCC2)=C(C(=O)OCCOC)C1c1cccc([N+](=O)[O-])c1 (stereo not drawn) [(14), 2-N--Cyclohexylaminocarbonyloxymethyl-6-methyl-5-ethoxycarbonyl-3-(β-methoxyethoxy)carbonyl-1,4-dihydropyridine] | 88 |  | 0.35 (≈ 0.642 µM) | 
13 | COC(=O)C1=C(COC(N)=O)NC(C)=C(C(=O)OCCN(C)Cc2ccccc2)C1c1cccc([N+](=O)[O-])c1 (stereo not drawn) [(15), 2-Aminocarbonyloxymethyl-6-methyl-4-(3-nitrophenyl)-3-methoxycarbonyl-5-(β-N--methylbenzylaminoethoxy)carbonyl-1,4-dihydropyridine] | > 200 |  | 0.4 (≈ 0.743 µM) | 
14 | CNC(=O)OCC1=C(C(=O)OC)C(c2cccc([N+](=O)[O-])c2)C(C(=O)OCCN(C)Cc2ccccc2)=C(C)N1 (stereo not drawn) [(16), 2-N--Methylaminocarbonyloxymethyl-6-methyl-4-(3-nitrophenyl)-3-methoxycarbonyl-5-(β-N--methylbenzylaminoethoxy)carbonyl-1,4-dihydropyridine] | 146 |  | 0.25 (≈ 0.452 µM) | 
15 | COC(=O)C1=C(COC(N)=O)NC(C)=C(C(=O)OCCN2CCN(C)CC2)C1c1cccc([N+](=O)[O-])c1 (stereo not drawn) [(17), 2-Aminocarbonyloxymethyl-6-methyl-4-(3-nitrophenyl)-3-methoxycarbonyl-5-[β-(4-methyl-1-piperazinyl)ethoxycarbonyl]-1,4-dihydropyridine] | 68 |  | 2 (≈ 3.86 µM) | 
16 | COC(=O)C1=C(COC(N)=O)NC(C)=C(C(=O)OCCN2CCOCC2)C1c1cccc([N+](=O)[O-])c1 (stereo not drawn) [(18), 2-Aminocarbonyloxymethyl-6-methyl-4-(3-nitrophenyl)-3-methoxycarbonyl-5-(β-morpholinoethoxy)carbonyl-1,4-dihydropyridine] | > 200 |  | 1.5 (≈ 2.97 µM) | 
17 | CCCOCCOC(=O)C1=C(COC(N)=O)NC(C)=C(C(=O)OCCN(C)Cc2ccccc2)C1c1cccc([N+](=O)[O-])c1 (stereo not drawn) [(19), 2-Aminocarbonyloxymethyl-6-methyl-4-(3-nitrophenyl)-3-(β-propoxyethoxy)carbonyl-5-(β-N--methylbenzylaminoethoxy)carbonyl-1,4-dihydropyridine] | 168 |  | 0.18 (≈ 0.295 µM) | 
18 | COCCOC(=O)C1=C(C)NC(COC(N)=O)=C(C(=O)OCCOC)C1c1ccccc1Cl (stereo not drawn) [(20), 2-Aminocarbonyloxymethyl-6-methyl-4-(2-chlorophenyl)-3,5-bis[(β-methoxyethoxy)carbonyl]-1,4-dihydropyridine] | 184 |  | 0.36 (≈ 0.745 µM) | 
19 | CCOC(=O)C1=C(COC(=O)Nc2ccc(Cl)cc2)NC(C)=C(C(=O)OC(C)C)C1c1cccc([N+](=O)[O-])c1 (stereo not drawn) [(21), 2-(4-chlorophenyl)aminocarbonyloxymethyl-6-methyl-4-(3-nitrophenyl)-3-ethoxycarbonyl-5-isopropoxycarbonyl-1,4-dihydropyridine] | 83 |  | 0.28 (≈ 0.502 µM) | 
20 | CCOC(=O)C1=C(COC(=O)Nc2ccccc2)NC(C)=C(C(=O)OC(C)C)C1c1cccc([N+](=O)[O-])c1 (stereo not drawn) [(22), 2-N--Phenylaminocarbonyloxymethyl-6-methyl-4-(3-nitrophenyl)-3-ethoxycarbonyl-5-isopropoxycarbonyl-1,4-dihydropyridine] | 80 |  | 0.33 (≈ 0.63 µM) | 
21 | COC(=O)C1=C(C)NC(C)=C(C(=O)OC)C1c1ccccc1[N+](=O)[O-] [nifedipine, 2,6-Dimethyl-4-(2-nitrophenyl)-3,5-dimethoxycarbonyl-1,4-dihydropyridine] |  | 0.29 (≈ 0.837 µM) | 0.22 (≈ 0.635 µM) | BP (systemic blood pressure) % decrease ([3]; 1 μg/kg i.v.): 2%; CF (coronary blood flow) % increase ([3]; 1 μg/kg i.v.): 10%; FAF (femoral artery blood flow) % increase ([3]; 1 μg/kg i.v.): -3%; HR (heart rate) % increase ([3]; 1 μg/kg i.v.): 0.6%; BP (systemic blood pressure) % decrease ([3]; 3 μg/kg i.v.): 10%; CF (coronary blood flow) % increase ([3]; 3 μg/kg i.v.): 48%; FAF (femoral artery blood flow) % increase ([3]; 3 μg/kg i.v.): -4%; HR (heart rate) % increase ([3]; 3 μg/kg i.v.): 2%; BP (systemic blood pressure) % decrease ([3]; 10 μg/kg i.v.): 18%; CF (coronary blood flow) % increase ([3]; 10 μg/kg i.v.): 86%; FAF (femoral artery blood flow) % increase ([3]; 10 μg/kg i.v.): 10%; HR (heart rate) % increase ([3]; 10 μg/kg i.v.): 4%
